Patent US20220125765A1, “PHARMACEUTICAL COMBINATIONS COMPRISING MEBENDAZOLE AND A STRONG OR MODERATE CYP1A2 INHIBITOR” (ZEPHAPHARM LTD, priority 2019, published 2022)
Like-named read-outs stand apart in the source and are kept apart here.

Key:
Format in all cases: cell-based
NBXF SHEP = experiment: 2D monolayer CellTiter-Blue viability, neuroblastoma SHEP; details: 72 h
Protocol: (§1) Seventeen compounds, including mebendazole (Batch no. […] Efficacy of compounds was assessed using CellTiter-Blue® Cell Viability Assay. Anti-tumor activity is expressed as absolute and relative IC50 and IC70 values, calculated by non-linear regression analysis.

NBXF SK-N-AS = experiment: 2D monolayer CellTiter-Blue viability, neuroblastoma SK-N-AS; details: 72 h
Protocol: as §1

SXFS Hs 729 = experiment: 2D monolayer CellTiter-Blue viability, soft tissue sarcoma Hs 729; details: 72 h
Protocol: as §1

[1] = test system: 6 ovarian cancer (OVXF) and 6 renal cancer (RXF) cell lines; experiment: 2D monolayer CellTiter-Blue viability, panel geometric mean (Example 10); details: 12 cell lines, 72 h
Protocol: (§2) Mebendazole was tested in vitro across a panel of 12 tumor cell lines of ovarian and renal cancer by using a 2D monolayer assay. […] OVXF 899L and RXF 486L are P-gp expressing, multidrug resistant cell lines.
(§3) Anti-tumor activity is expressed as absolute and relative IC50/70 values, calculated by 4-parameter non-linear curve fit.

OVCAR-3 = experiment: 2D monolayer CellTiter-Blue viability, ovarian cancer OVCAR-3; details: for IC50: Homo sapiens; for Test/Control (%) at Drug Concentration: 72 h
Protocol: as §2, §3

RXF 2282L = experiment: 2D monolayer CellTiter-Blue viability, renal cancer RXF 2282L; details: for Test/Control (%) at Drug Concentration: 72 h
Protocol: as §2, §3

In the case of `COC(=O)Nc1nc2ccc(C(=O)c3ccccc3)cc2[nH]1` [Mebendazole, methyl N-(6-benzoyl-1H-benzimidazol-2-yl)carbamate], the “Test/Control (%) at Drug Concentration” value (NBXF SHEP; 1.0E+00 μM) is reported as 20%, the “Test/Control (%) at Drug Concentration” value (NBXF SHEP; 1.0E+01 μM) is reported as 20% and the “Test/Control (%) at Drug Concentration” value (NBXF SHEP; 1.0E+02 μM) is reported as 16%. For the same molecule, the “Test/Control (%) at Drug Concentration” value (NBXF SHEP; 1.0E−01 μM) was 72%, the “Test/Control (%) at Drug Concentration” value (NBXF SHEP; 1.0E−02 μM) was 72% and the “Test/Control (%) at Drug Concentration” value (NBXF SHEP; 3.2E+00 μM) was 27%. The “Test/Control (%) at Drug Concentration” value (NBXF SHEP; 3.2E+01 μM) was 18%, the “Test/Control (%) at Drug Concentration” value (NBXF SHEP; 3.2E−01 μM) was 47% and the “Test/Control (%) at Drug Concentration” value (NBXF SHEP; 3.2E−02 μM) was 68%. For the same molecule, the “Test/Control (%) at Drug Concentration” value (NBXF SHEP; 3.2E−03 μM) was 72%, the “Test/Control (%) at Drug Concentration” value (NBXF SK-N-AS; 1.0E+00 μM) was 31% and the “Test/Control (%) at Drug Concentration” value (NBXF SK-N-AS; 1.0E+01 μM) was 21%. The “Test/Control (%) at Drug Concentration” value (NBXF SK-N-AS; 1.0E+02 μM) was 8%, the “Test/Control (%) at Drug Concentration” value (NBXF SK-N-AS; 1.0E−01 μM) was 62% and the “Test/Control (%) at Drug Concentration” value (NBXF SK-N-AS; 1.0E−02 μM) was 91%. For the same molecule, the “Test/Control (%) at Drug Concentration” value (NBXF SK-N-AS; 3.2E+00 μM) was 28%, the “Test/Control (%) at Drug Concentration” value (NBXF SK-N-AS; 3.2E+01 μM) was 19% and the “Test/Control (%) at Drug Concentration” value (NBXF SK-N-AS; 3.2E−01 μM) was 36%. For the same molecule, the “Test/Control (%) at Drug Concentration” value (NBXF SK-N-AS; 3.2E−02 μM) was 84%, the “Test/Control (%) at Drug Concentration” value (NBXF SK-N-AS; 3.2E−03 μM) was 89% and the “Test/Control (%) at Drug Concentration” value (SXFS Hs 729; Hs 729, 1.0E+00 μM) was 65%. The “Test/Control (%) at Drug Concentration” value (SXFS Hs 729; Hs 729, 1.0E+01 μM) was 44%, the “Test/Control (%) at Drug Concentration” value (SXFS Hs 729; Hs 729, 1.0E+02 μM) was 12% and the “Test/Control (%) at Drug Concentration” value (SXFS Hs 729; Hs 729, 1.0E−01 μM) was 90%. For the same molecule, the “Test/Control (%) at Drug Concentration” value (SXFS Hs 729; Hs 729, 1.0E−02 μM) was 91%, the “Test/Control (%) at Drug Concentration” value (SXFS Hs 729; Hs 729, 3.2E+00 μM) was 56% and the “Test/Control (%) at Drug Concentration” value (SXFS Hs 729; Hs 729, 3.2E+01 μM) was 35%. The “Test/Control (%) at Drug Concentration” value (SXFS Hs 729; Hs 729, 3.2E−01 μM) was 84%, the “Test/Control (%) at Drug Concentration” value (SXFS Hs 729; Hs 729, 3.2E−02 μM) was 89% and the “Test/Control (%) at Drug Concentration” value (SXFS Hs 729; Hs 729, 3.2E−03 μM) was 93%. For the same molecule, the “Geometric mean Abs. IC70” value [1] was 1515 nM, the “Geometric mean Rel. IC70” value [1] was 801 nM and the IC50 ([1]; read-out: Geometric mean Abs. IC50) was 941 nM. It also gave an IC50 ([1]; read-out: Geometric mean Rel. IC50) of 587 nM, an IC50 (OVCAR-3; OVCAR-3, 72 h, read-out: Abs. IC50) of 426 nM and an IC50 (OVCAR-3; OVCAR-3, 72 h, read-out: Rel. IC50) of 362 nM. The “Test/Control (%) at Drug Concentration” value (OVCAR-3; OVCAR-3, 1.0E+00 μM) was 27%, the “Test/Control (%) at Drug Concentration” value (OVCAR-3; OVCAR-3, 1.0E−01 μM) was 95% and the “Test/Control (%) at Drug Concentration” value (OVCAR-3; OVCAR-3, 1.0E−02 μM) was 97%. The “Test/Control (%) at Drug Concentration” value (OVCAR-3; OVCAR-3, 1.0E−03 μM) was 89%, the “Test/Control (%) at Drug Concentration” value (OVCAR-3; OVCAR-3, 1.0E−04 μM) was 97% and the “Test/Control (%) at Drug Concentration” value (OVCAR-3; OVCAR-3, 3.2E+00 μM) was 26%. For the same molecule, the “Test/Control (%) at Drug Concentration” value (OVCAR-3; OVCAR-3, 3.2E−01 μM) was 69%, the “Test/Control (%) at Drug Concentration” value (OVCAR-3; OVCAR-3, 3.2E−02 μM) was 90% and the “Test/Control (%) at Drug Concentration” value (OVCAR-3; OVCAR-3, 3.2E−03 μM) was 93%. The “Test/Control (%) at Drug Concentration” value (OVCAR-3; OVCAR-3, 3.2E−04 μM) was 103%, the “Abs. IC70” value (OVCAR-3; OVCAR-3, 72 h) was 749 nM and the “Rel. IC70” value (OVCAR-3; OVCAR-3, 72 h) was 447 nM. For the same molecule, the “Bot. (%)” value (OVCAR-3; OVCAR-3, 72 h, curve fit) was 26%, the “Top (%)” value (OVCAR-3; OVCAR-3, 72 h, curve fit) was 95% and the “Test/Control (%) at Drug Concentration” value (RXF 2282L; RXF 2282, 1.0E+00 μM) was 71%. The “Test/Control (%) at Drug Concentration” value (RXF 2282L; RXF 2282, 1.0E−01 μM) was 83%, the “Test/Control (%) at Drug Concentration” value (RXF 2282L; RXF 2282, 1.0E−02 μM) was 84% and the “Test/Control (%) at Drug Concentration” value (RXF 2282L; RXF 2282, 1.0E−03 μM) was 88%. The “Test/Control (%) at Drug Concentration” value (RXF 2282L; RXF 2282, 1.0E−04 μM) was 108%, the “Test/Control (%) at Drug Concentration” value (RXF 2282L; RXF 2282, 3.2E+00 μM) was 57% and the “Test/Control (%) at Drug Concentration” value (RXF 2282L; RXF 2282, 3.2E−01 μM) was 77%. For the same molecule, the “Test/Control (%) at Drug Concentration” value (RXF 2282L; RXF 2282, 3.2E−02 μM) was 86%, the “Test/Control (%) at Drug Concentration” value (RXF 2282L; RXF 2282, 3.2E−03 μM) was 89% and the “Test/Control (%) at Drug Concentration” value (RXF 2282L; RXF 2282, 3.2E−04 μM) was 92%. The “Abs. IC70” value (RXF 2282L; RXF 2282, 72 h) was >3200 nM, the “Rel. IC70” value (RXF 2282L; RXF 2282, 72 h) was >3200 nM and the “Bot. (%)” value (RXF 2282L; RXF 2282, 72 h, curve fit) was 0%. The “Top (%)” value (RXF 2282L; RXF 2282, 72 h, curve fit) was 102%, the IC50 (RXF 2282L; RXF 2282, 72 h, read-out: Abs. IC50) was > 3200 nM and the IC50 (RXF 2282L; RXF 2282, 72 h, read-out: Rel. IC50) was > 3200 nM.
